Test system: NCI-H1876 complex spheroid growth, % test/control
Assay: Anticancer human tumor NCI-H1876 cell line growth inhibition [Asc];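 also: compound exposure lasted 7 days starting three days after seeding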;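 as to viability, T/C: 100% = DMSO vehicle control wells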
Settings: for IC50: curve of first compound; for viability, T/C: stronger effect = lower value
Method in brief: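 Tumor cells were grown as complex spheroids with human endothelial cells (HUVEC) and human mesenchymal stem cells as stroma. Agents were tested alone and in combination, in half-log steps down from the clinical Cmax, or from 10 microM where Cmax was unknown.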

[1] = second compound 0.00949 µM, first compound 0.0316 µM
[2] = second compound 0.00949 µM, first compound 0.1 µM
[3] = second compound 0.00949 µM, first compound 0.316 µM
[4] = second compound 0.00949 µM, first compound 1 µM
[5] = second compound 0.03 µM, first compound 0.0316 µM
[6] = second compound 0.03 µM, first compound 0.1 µM
[7] = second compound 0.03 µM, first compound 0.316 µM
[8] = second compound 0.03 µM, first compound 1 µM
[9] = second compound 0.0949 µM, first compound 0.0316 µM
[10] = second compound 0.0949 µM, first compound 0.1 µM
[11] = second compound 0.0949 µM, first compound 0.316 µM
[12] = second compound 0.0949 µM, first compound 1 µM
[13] = second compound 0.3 µM, first compound 0.0316 µM
[14] = second compound 0.3 µM, first compound 0.1 µM
[15] = second compound 0.3 µM, first compound 0.316 µM
[16] = second compound 0.3 µM, first compound 1 µM
[17] = second compound 0.949 µM, first compound 0.0316 µM
[18] = second compound 0.949 µM, first compound 0.1 µM
[19] = second compound 0.949 µM, first compound 0.316 µM
[20] = second compound 0.949 µM, first compound 1 µM
[21] = second compound 3 µM, first compound 0.0316 µM
[22] = second compound 3 µM, first compound 0.1 µM
[23] = second compound 3 µM, first compound 0.316 µM
[24] = second compound 3 µM, first compound 1 µM

Q: Which IC50 (second compound 0.00949 µM) does the source give for `CNC(C)C(=O)NC1CN(S(=O)(=O)c2cccc(S(=O)(=O)N3CCC4CCC(C(=O)NC(c5ccccc5)c5ccccc5)N4C(=O)C(NC(=O)C(C)NC)C3)c2)CCC2CCC(C(=O)NC(c3ccccc3)c3ccccc3)N2C1=O` (centres undefined) + CCN1C(C(=O)NC23CCC(C(=O)O)(CC2)CC3)C(c2cccc(Cl)c2F)C2(C(=O)Nc3cc(Cl)ccc32)C12CCCCC2 here?
A: > 1 µM

Q: And the IC50 (second compound 0.03 µM)?
A: > 1 µM

Q: What about the IC50 (second compound 0.0949 µM) of the same molecule?
A: > 1 µM

Q: What about the IC50 (second compound 0.3 µM) of the same molecule?
A: > 1 µM

Q: What about the IC50 (second compound 0.949 µM) of the same molecule?
A: > 1 µM

Q: What about the IC50 (second compound 3 µM) of the same molecule?
A: > 1 µM

Q: And the viability, T/C (second compound 0.00949 µM, first compound 0.00316 µM)?
A: 101%

Q: What about the viability, T/C (second compound 0.00949 µM, first compound 0.01 µM) of the same molecule?
A: 99.6%

Q: What about the viability, T/C [1] of the same molecule?
A: 101%

Q: What about the viability, T/C [2] of the same molecule?
A: 100%

Q: And the viability, T/C [3]?
A: 116%

Q: And the viability, T/C [4]?
A: 102%

Q: And the viability, T/C (second compound 0.03 µM, first compound 0.00316 µM)?
A: 103%

Q: What about the viability, T/C (second compound 0.03 µM, first compound 0.01 µM) of the same molecule?
A: 96.7%

Q: And the viability, T/C [5]?
A: 98.8%

Q: And the viability, T/C [6]?
A: 98.4%

Q: What about the viability, T/C [7] of the same molecule?
A: 115%

Q: And the viability, T/C [8]?
A: 97%

Q: What about the viability, T/C (second compound 0.0949 µM, first compound 0.00316 µM) of the same molecule?
A: 111%

Q: What about the viability, T/C (second compound 0.0949 µM, first compound 0.01 µM) of the same molecule?
A: 104%

Q: What about the viability, T/C [9] of the same molecule?
A: 106%

Q: And the viability, T/C [10]?
A: 106%

Q: And the viability, T/C [11]?
A: 98.5%

Q: What about the viability, T/C [12] of the same molecule?
A: 110%

Q: What about the viability, T/C (second compound 0.3 µM, first compound 0.00316 µM) of the same molecule?
A: 103%

Q: What about the viability, T/C (second compound 0.3 µM, first compound 0.01 µM) of the same molecule?
A: 108%

Q: What about the viability, T/C [13] of the same molecule?
A: 108%

Q: And the viability, T/C [14]?
A: 108%

Q: And the viability, T/C [15]?
A: 118%

Q: What about the viability, T/C [16] of the same molecule?
A: 103%

Q: What about the viability, T/C (second compound 0.949 µM, first compound 0.00316 µM) of the same molecule?
A: 114%

Q: What about the viability, T/C (second compound 0.949 µM, first compound 0.01 µM) of the same molecule?
A: 119%

Q: And the viability, T/C [17]?
A: 106%

Q: What about the viability, T/C [18] of the same molecule?
A: 119%

Q: And the viability, T/C [19]?
A: 115%

Q: And the viability, T/C [20]?
A: 112%

Q: What about the viability, T/C (second compound 3 µM, first compound 0.00316 µM) of the same molecule?
A: 114%

Q: And the viability, T/C (second compound 3 µM, first compound 0.01 µM)?
A: 108%

Q: And the viability, T/C [21]?
A: 107%

Q: And the viability, T/C [22]?
A: 99.5%

Q: And the viability, T/C [23]?
A: 110%

Q: And the viability, T/C [24]?
A: 109%

Q: What does the source list for `O=C(c1cc(Cc2n[nH]c(=O)c3ccccc23)ccc1F)N1CCN(C(=O)C2CC2)CC1` + CCN1C(C(=O)NC23CCC(C(=O)O)(CC2)CC3)C(c2cccc(Cl)c2F)C2(C(=O)Nc3cc(Cl)ccc32)C12CCCCC2?
A: IC50 (second compound 0.00949 µM): > 10 µM; IC50 (second compound 0.03 µM): > 10 µM; IC50 (second compound 0.0949 µM): > 10 µM; IC50 (second compound 0.3 µM): > 10 µM; IC50 (second compound 0.949 µM): > 10 µM; IC50 (second compound 3 µM): > 10 µM; viability, T/C [1]: 99.3%; viability, T/C [2]: 94.5%; viability, T/C [3]: 118%; viability, T/C [4]: 102%; viability, T/C (second compound 0.00949 µM, first compound 3.16 µM): 100%; viability, T/C (second compound 0.00949 µM, first compound 10 µM): 80.2%; viability, T/C [5]: 104%; viability, T/C [6]: 100%; viability, T/C [7]: 97.4%; viability, T/C [8]: 108%; viability, T/C (second compound 0.03 µM, first compound 3.16 µM): 116%; viability, T/C (second compound 0.03 µM, first compound 10 µM): 82%; viability, T/C [9]: 101%; viability, T/C [10]: 106%; viability, T/C [11]: 104%; viability, T/C [12]: 102%; viability, T/C (second compound 0.0949 µM, first compound 3.16 µM): 112%; viability, T/C (second compound 0.0949 µM, first compound 10 µM): 85.5%; viability, T/C [13]: 106%; viability, T/C [14]: 116%; viability, T/C [15]: 108%; viability, T/C [16]: 102%; viability, T/C (second compound 0.3 µM, first compound 3.16 µM): 112%; viability, T/C (second compound 0.3 µM, first compound 10 µM): 97%; viability, T/C [17]: 122%; viability, T/C [18]: 114%; viability, T/C [19]: 110%; viability, T/C [20]: 123%; viability, T/C (second compound 0.949 µM, first compound 3.16 µM): 117%; viability, T/C (second compound 0.949 µM, first compound 10 µM): 83.2%; viability, T/C [21]: 102%; viability, T/C [22]: 108%; viability, T/C [23]: 101%; viability, T/C [24]: 106%; viability, T/C (second compound 3 µM, first compound 3.16 µM): 98%; viability, T/C (second compound 3 µM, first compound 10 µM): 76.9%
